Experimental data as given in paper PMC6081437, “The potency of the broad spectrum bacteriocin, bactofencin A, against staphylococci is highly dependent on primary structure, N-terminal charge and disulphide formation” (Scientific Reports, 2018).
Bridge positions count the residues as written; N and C are the ends. Square brackets hold non-standard residues; d marks the D form. Peptide text beside a SMILES is read from it.

Test system: S. aureus DPC5246
Assay type: cell-based, Staphylococcus aureus
Conditions: DPC5246, pH 6.8
Experimental: Peptides were resuspended at 1000 µM in 50 mM sodium phosphate buffer pH 6.8 and checked for purity by MALDI-TOF-MS. Peptides were serially diluted 1 in 4 to give a dilution series of 250, 62.50, 15.63, 3.91, 0.98 and 0.24 µM and assayed by the agar well diffusion assay described by Ryan et al.[19]. Briefly, 50 µl aliquots of each peptide concentration were plated on a S. aureus DPC5246 indicator plate and the plate incubated at 37 °C. Peptide activity (Minimum Inhibitory Concentration (MIC)) was taken as the lowest concentration of peptide to give a zone of inhibition. All assays were performed in triplicate. The dilution series values were rounded to the nearest whole number to give 1000, 250, 63, 16, 4, 1 and 0.25 µM and data is colour coded for ease of interpretation.

SMILES	Activity (Minimum Inhibitory Concentration, MIC) [µM]
CSCC[C@@H]1NC(=O)CNC(=O)[C@H]([C@@H](C)O)NC(=O)[C@@H]2CCCN2C(=O)[C@H](CCSC)NC(=O)CNC(=O)[C@H](CC(N)=O)NC(=O)[C@H](CC(N)=O)NC(=O)[C@H](Cc2ccc(O)cc2)NC(=O)[C@H](C(C)C)NC(=O)[C@H](CCCNC(=N)N)NC(=O)[C@@H](N)CSSC[C@@H](C(=O)O)NC(=O)[C@H](Cc2c[nH]c3ccccc23)NC(=O)[C@H](CCCNC(=N)N)NC(=O)[C@H](Cc2ccc(O)cc2)NC1=O [C7-C22] (H-CRVYNNGMPTGMYRWC-OH; disulfide 1-16; N-terminus assumed)	> 1000
CSCC[C@@H]1NC(=O)CNC(=O)[C@H]([C@@H](C)O)NC(=O)[C@@H]2CCCN2C(=O)[C@H](CCSC)NC(=O)CNC(=O)[C@H](CC(N)=O)NC(=O)[C@H](CC(N)=O)NC(=O)[C@H](Cc2ccc(O)cc2)NC(=O)[C@H](C(C)C)NC(=O)[C@H](CCCNC(=N)N)NC(=O)[C@H](NC(=O)[C@H](CCCNC(=N)N)NC(=O)[C@H](Cc2c[nH]cn2)NC(=O)[C@H](CCCCN)NC(=O)[C@H](CCCCN)NC(=O)[C@H](CCCNC(=N)N)NC(=O)[C@@H](N)CCCCN)CSSC[C@@H](C(=O)O)NC(=O)[C@H](Cc2c[nH]c3ccccc23)NC(=O)[C@H](CCCNC(=N)N)NC(=O)[C@H](Cc2ccc(O)cc2)NC1=O [C7Cd] (H-KRKKHR[dC]RVYNNGMPTGMYRWC-OH; disulfide 7-22; N-terminus assumed)	16
CSCC[C@@H]1NC(=O)CNC(=O)[C@H]([C@@H](C)O)NC(=O)[C@@H]2CCCN2C(=O)[C@H](CCSC)NC(=O)CNC(=O)[C@H](CC(N)=O)NC(=O)[C@H](CC(N)=O)NC(=O)[C@H](Cc2ccc(O)cc2)NC(=O)[C@H](C(C)C)NC(=O)[C@H](CCCNC(=N)N)NC(=O)[C@@H](NC(=O)[C@H](CCCNC(=N)N)NC(=O)[C@H](Cc2c[nH]cn2)NC(=O)[C@H](CCCCN)NC(=O)[C@H](CCCCN)NC(=O)[C@H](CCCNC(=N)N)NC(=O)[C@@H](N)CCCCN)CSSC[C@H](C(=O)O)NC(=O)[C@H](Cc2c[nH]c3ccccc23)NC(=O)[C@H](CCCNC(=N)N)NC(=O)[C@H](Cc2ccc(O)cc2)NC1=O [C22Cd] (H-KRKKHRCRVYNNGMPTGMYRW[dC]-OH; disulfide 7-22; N-terminus assumed)	4
CSCC[C@@H]1NC(=O)CNC(=O)[C@H]([C@@H](C)O)NC(=O)[C@@H]2CCCN2C(=O)[C@H](CCSC)NC(=O)[C@H](C)NC(=O)[C@H](CC(N)=O)NC(=O)[C@H](CC(N)=O)NC(=O)[C@H](Cc2ccc(O)cc2)NC(=O)[C@H](C(C)C)NC(=O)[C@H](CCCNC(=N)N)NC(=O)[C@@H](NC(=O)[C@H](CCCNC(=N)N)NC(=O)[C@H](Cc2c[nH]cn2)NC(=O)[C@H](CCCCN)NC(=O)[C@H](CCCCN)NC(=O)[C@H](CCCNC(=N)N)NC(=O)[C@@H](N)CCCCN)CSSC[C@@H](C(=O)O)NC(=O)[C@H](Cc2c[nH]c3ccccc23)NC(=O)[C@H](CCCNC(=N)N)NC(=O)[C@H](Cc2ccc(O)cc2)NC1=O [G13A] (H-KRKKHRCRVYNNAMPTGMYRWC-OH; disulfide 7-22)	16
CSCC[C@@H]1NC(=O)[C@H](C)NC(=O)[C@H]([C@@H](C)O)NC(=O)[C@@H]2CCCN2C(=O)[C@H](CCSC)NC(=O)CNC(=O)[C@H](CC(N)=O)NC(=O)[C@H](CC(N)=O)NC(=O)[C@H](Cc2ccc(O)cc2)NC(=O)[C@H](C(C)C)NC(=O)[C@H](CCCNC(=N)N)NC(=O)[C@@H](NC(=O)[C@H](CCCNC(=N)N)NC(=O)[C@H](Cc2c[nH]cn2)NC(=O)[C@H](CCCCN)NC(=O)[C@H](CCCCN)NC(=O)[C@H](CCCNC(=N)N)NC(=O)[C@@H](N)CCCCN)CSSC[C@@H](C(=O)O)NC(=O)[C@H](Cc2c[nH]c3ccccc23)NC(=O)[C@H](CCCNC(=N)N)NC(=O)[C@H](Cc2ccc(O)cc2)NC1=O [G17A] (H-KRKKHRCRVYNNGMPTAMYRWC-OH; disulfide 7-22)	4
CSCC[C@@H]1NC(=O)CNC(=O)[C@H]([C@@H](C)O)NC(=O)[C@@H]2CCCN2C(=O)[C@H](CCSC)NC(=O)CNC(=O)[C@H](CC(N)=O)NC(=O)[C@H](CC(N)=O)NC(=O)[C@H](Cc2ccc(O)cc2)NC(=O)[C@H](C(C)C)NC(=O)[C@H](CCCNC(=N)N)NC(=O)[C@@H](NC(=O)[C@H](CCCNC(=N)N)NC(=O)[C@@H](N)Cc2c[nH]cn2)CSSC[C@@H](C(=O)O)NC(=O)[C@H](Cc2c[nH]c3ccccc23)NC(=O)[C@H](CCCNC(=N)N)NC(=O)[C@H](Cc2ccc(O)cc2)NC1=O [H5-C22] (H-HRCRVYNNGMPTGMYRWC-OH; disulfide 3-18; N-terminus assumed)	16
CSCC[C@@H]1NC(=O)CNC(=O)[C@H]([C@@H](C)O)NC(=O)[C@@H]2CCCN2C(=O)[C@H](CCSC)NC(=O)CNC(=O)[C@H](CC(N)=O)NC(=O)[C@H](CC(N)=O)NC(=O)[C@H](Cc2ccc(O)cc2)NC(=O)[C@H](C(C)C)NC(=O)[C@H](CCCNC(=N)N)NC(=O)[C@@H](NC(=O)[C@H](CCCNC(=N)N)NC(=O)[C@H](C)NC(=O)[C@H](CCCCN)NC(=O)[C@H](CCCCN)NC(=O)[C@H](CCCNC(=N)N)NC(=O)[C@@H](N)CCCCN)CSSC[C@@H](C(=O)O)NC(=O)[C@H](Cc2c[nH]c3ccccc23)NC(=O)[C@H](CCCNC(=N)N)NC(=O)[C@H](Cc2ccc(O)cc2)NC1=O [H5A] (H-KRKKARCRVYNNGMPTGMYRWC-OH; disulfide 7-22)	1
CSCC[C@@H]1NC(=O)CNC(=O)[C@H]([C@@H](C)O)NC(=O)[C@@H]2CCCN2C(=O)[C@H](CCSC)NC(=O)CNC(=O)[C@H](CC(N)=O)NC(=O)[C@H](CC(N)=O)NC(=O)[C@H](Cc2ccc(O)cc2)NC(=O)[C@H](C(C)C)NC(=O)[C@H](CCCNC(=N)N)NC(=O)[C@@H](NC(=O)[C@H](CCCNC(=N)N)NC(=O)[C@H](Cc2c[nH]cn2)NC(=O)[C@H](CCCCN)NC(=O)[C@H](CCCCN)NC(=O)[C@H](CCCNC(=N)N)NC(=O)[C@H](C)N)CSSC[C@@H](C(=O)O)NC(=O)[C@H](Cc2c[nH]c3ccccc23)NC(=O)[C@H](CCCNC(=N)N)NC(=O)[C@H](Cc2ccc(O)cc2)NC1=O [K1A] (H-ARKKHRCRVYNNGMPTGMYRWC-OH; disulfide 7-22)	1
CSCC[C@@H]1NC(=O)CNC(=O)[C@H]([C@@H](C)O)NC(=O)[C@@H]2CCCN2C(=O)[C@H](CCSC)NC(=O)CNC(=O)[C@H](CC(N)=O)NC(=O)[C@H](CC(N)=O)NC(=O)[C@H](Cc2ccc(O)cc2)NC(=O)[C@H](C(C)C)NC(=O)[C@H](CCCNC(=N)N)NC(=O)[C@@H](NC(=O)[C@H](CCCNC(=N)N)NC(=O)[C@H](Cc2c[nH]cn2)NC(=O)[C@H](CCCCN)NC(=O)[C@H](C)NC(=O)[C@H](CCCNC(=N)N)NC(=O)[C@@H](N)CCCCN)CSSC[C@@H](C(=O)O)NC(=O)[C@H](Cc2c[nH]c3ccccc23)NC(=O)[C@H](CCCNC(=N)N)NC(=O)[C@H](Cc2ccc(O)cc2)NC1=O [K3A] (H-KRAKHRCRVYNNGMPTGMYRWC-OH; disulfide 7-22)	1
CSCC[C@@H]1NC(=O)CNC(=O)[C@H]([C@@H](C)O)NC(=O)[C@@H]2CCCN2C(=O)[C@H](CCSC)NC(=O)CNC(=O)[C@H](CC(N)=O)NC(=O)[C@H](CC(N)=O)NC(=O)[C@H](Cc2ccc(O)cc2)NC(=O)[C@H](C(C)C)NC(=O)[C@H](CCCNC(=N)N)NC(=O)[C@@H](NC(=O)[C@H](CCCNC(=N)N)NC(=O)[C@H](Cc2c[nH]cn2)NC(=O)[C@@H](N)CCCCN)CSSC[C@@H](C(=O)O)NC(=O)[C@H](Cc2c[nH]c3ccccc23)NC(=O)[C@H](CCCNC(=N)N)NC(=O)[C@H](Cc2ccc(O)cc2)NC1=O [K4-C22] (H-KHRCRVYNNGMPTGMYRWC-OH; disulfide 4-19; N-terminus assumed)	4
CSCC[C@@H]1NC(=O)CNC(=O)[C@H]([C@@H](C)O)NC(=O)[C@@H]2CCCN2C(=O)[C@H](CCSC)NC(=O)CNC(=O)[C@H](CC(N)=O)NC(=O)[C@H](CC(N)=O)NC(=O)[C@H](Cc2ccc(O)cc2)NC(=O)[C@H](C(C)C)NC(=O)[C@H](CCCNC(=N)N)NC(=O)[C@@H](NC(=O)[C@H](CCCNC(=N)N)NC(=O)[C@H](Cc2c[nH]cn2)NC(=O)[C@H](C)NC(=O)[C@H](CCCCN)NC(=O)[C@H](CCCNC(=N)N)NC(=O)[C@@H](N)CCCCN)CSSC[C@@H](C(=O)O)NC(=O)[C@H](Cc2c[nH]c3ccccc23)NC(=O)[C@H](CCCNC(=N)N)NC(=O)[C@H](Cc2ccc(O)cc2)NC1=O [K4A] (H-KRKAHRCRVYNNGMPTGMYRWC-OH; disulfide 7-22)	1
CSCC[C@@H]1NC(=O)CNC(=O)[C@H]([C@@H](C)O)NC(=O)[C@@H]2CCCN2C(=O)[C@H](C)NC(=O)CNC(=O)[C@H](CC(N)=O)NC(=O)[C@H](CC(N)=O)NC(=O)[C@H](Cc2ccc(O)cc2)NC(=O)[C@H](C(C)C)NC(=O)[C@H](CCCNC(=N)N)NC(=O)[C@@H](NC(=O)[C@H](CCCNC(=N)N)NC(=O)[C@H](Cc2c[nH]cn2)NC(=O)[C@H](CCCCN)NC(=O)[C@H](CCCCN)NC(=O)[C@H](CCCNC(=N)N)NC(=O)[C@@H](N)CCCCN)CSSC[C@@H](C(=O)O)NC(=O)[C@H](Cc2c[nH]c3ccccc23)NC(=O)[C@H](CCCNC(=N)N)NC(=O)[C@H](Cc2ccc(O)cc2)NC1=O [M14A] (H-KRKKHRCRVYNNGAPTGMYRWC-OH; disulfide 7-22)	16
